{"source": "patent US20150315218A1", "about": "“SALTS OF PRODRUGS OF PIPERAZINE AND SUBSTITUTED PIPERIDINE ANTIVIRAL AGENTS” (Bristol-Myers Squibb Company, priority 2004, published 2015)", "key": {"[1]": {"assay": "Single-dose oral toxicokinetic study of prodrugs in rats", "type": "in vivo, rat", "settings": "for C24 h: mean; for Cmax / AUC / half-life: rat, plasma", "method": "A 1-day oral toxicokinetic study in rats was conducted using the prodrug Iab (monolysine salt). Iab was administered at dosages of 16, 72, and 267 mg/kg (free acid) by oral gavage to three male rats/group using water as the vehicle (solution formulation). The dosages of prodrug free acid correspond to IVa (parent) molar equivalent dosages of 13, 57, and 211 mg/kg, respectively. The endpoint evaluated was plasma toxicokinetics of Iab and IVa in the individual rats.\nA 1-day oral toxicokinetic study in rats was conducted by using the prodrug Ibb (monolysine salt). Ibb was administered at dosages of 19, 64, and 236 mg/kg (free acid) by oral gavage to three male rats/group using water as the vehicle (solution formulation).\nA 1-day oral toxicokinetic study in rats was conducted using the prodrug Icb (disodium salt). Icb was administered at dosages of 5, 25, and 200 mg/kg (free acid) by oral gavage to three male rats/group using water as the vehicle (solution formulation)."}, "[2]": {"assay": "Single-dose toxicokinetic and tolerability study of prodrugs in dogs", "type": "in vivo, dog", "settings": "for clinical signs, body weight and food consumption / emesis: oral prodrug", "method": "A multi-phase study was conducted to evaluate the tolerability of the prodrug, Iab (monolysine salt) at dosages of 24, 90, or 240 mg/kg (free acid, molar equivalent to 19, 71, or 190 mg/kg of parent IVa, respectively) and the toxicokinetics of lab and IVa (4). Iab was administered to two female dogs/group once daily either as an aqueous solution (24 or 90 mg/kg) or dry-filled capsules (24, 90 [once and twice daily] or 240 mg/kg). The endpoints were: clinical signs, body weight, food consumption, and plasma toxicokinetics of lab and IVa. In all cases, a 1-week washout period was used between doses for all phases of the study. […]\nOn day 1, Icb was administered to one dog/sex/group once daily in dry-filled capsules at the above dosages. A 1-week washout period was used between doses in the study. On day 8, Icb was administered to one dog/sex/group once daily as an aqueous solution at 25 mg/kg or twice daily in dry-filled capsules at 46 or 125 mg/kg BID."}, "[3]": {"assay": "IV and PO pharmacokinetic studies of prodrug salts (Iab, Ibb, Icb) in the monkey, with historical parent data", "type": "in vivo, cynomolgus monkeys", "settings": "monkey; for half-life: after IV prodrug, read-out: t1/2 (hr), IV (converted); for clearance / Vd: prodrug after IV administration; for clearance: read-out: CLtot (mL/min/kg), IV; for Vd: read-out: Vdss (L/kg), IV", "method": "The IV and PO studies of Iab were conducted in a crossover fashion in three male cynomolgus monkeys (11±1.2 kg, Charles River Biomedical Research Foundation, Houston, Tex.). There was a two-week washout period between the IV and PO studies.\nIn the IV study, Iab was infused via the femoral vein at 1.3 mg/kg (free acid, or 1.1 mg/kg of IVa equivalent) over 5 min at a constant rate of 0.1 mL/kg/min. The concentration of the dosing solution was 2.6 mg/mL, and the dosing volume was 0.5 mL/kg. Serial blood samples were collected from the femoral artery before dosing and at 5, 10, 15, 30, 45 min, 1, 2, 4, 6, 8 and 24 hr after dosing.\nIn the PO study, the monkeys were fasted overnight before dosing. Iab was administered by oral gavage at 7.1 mg/kg (free acid, or 5.6 mg/kg of IVa equivalent). The concentration of the dosing solution was 14.2 mg/mL, and the dosing volume was 0.5 mL/kg. Serial blood samples were collected before dosing and at 15, 30, 45 min, 1, 2, 4, 6, 8 and 24 hr after dosing.\nThe IV and PO studies of Ibb were conducted in a crossover fashion in three male cynomolgus monkeys (9.9±2.4 kg, Charles River Biomedical Research Foundation, Houston, Tex.). There was a two-week washout period between the IV and PO studies.\nThe concentration of the dosing solution was 2.7 mg/mL, and the dosing volume was 0.5 mL/kg. Serial blood samples were collected from the femoral artery before dosing and at 5, 10, 15, 30, 45 min, 1, 2, 4, 6, 8 and 24 hr after dosing.\nIn the PO study, the monkeys were fasted overnight before dosing. […] The concentration of the dosing solution was 5.8 mg/mL, and the dosing volume was 1 mL/kg. Serial blood samples were collected before dosing and at 15, 30, 45 min, 1, 2, 4, 6, 8 and 24 hr after dosing.\nThe IV and PO studies of Icb were conducted in a crossover fashion in three male cynomolgus monkeys (10±1.6 kg, Charles River Biomedical Research Foundation, Houston, Tex.). There was a two-week washout period between the IV and PO studies.\nThe concentration of the dosing solution was 2.8 mg/mL, and the dosing volume was 0.5 mL/kg. Serial blood samples were collected from the femoral artery before dosing and at 5, 10, 15, 30, 45 min, 1, 2, 4, 6, 8 and 24 hr after dosing.\nIn the PO study, the monkeys were fasted overnight before dosing. […] The concentration of the dosing solution was 9.8 mg/mL, and the dosing volume was 0.5 mL/kg. Serial blood samples were collected before dosing and at 15, 30, 45 min, 1, 2, 4, 6, 8 and 24 hr after dosing."}, "[4]": {"settings": "male, cynomolgus monkey, plasma, analyte = label"}, "[5]": {"settings": "male, cynomolgus monkey, plasma"}}, "note": "Entries after “also recorded” stand apart in the source; their conditions may differ. Counter-ions that a name gives are not always drawn."}
{"smiles": "O=C(C(=O)N1CCN(C(=O)c2ccccc2)CC1)c1cn(COP(=O)(O)O)c2c(-n3ccnn3)ncc(F)c12", "note": "[Ibb, [3-[(4-benzoylpiperazin-1-yl)(oxo)acetyl]-4-fluoro-7-(1H-1,2,3-triazol-1-yl)-1H-pyrrolo[2,3-c]pyridin-1-yl]methyl dihydrogen phosphate, L-lysine salt (1:1)]", "values": [{"measurement": "C24 h", "setting": "[1]; male rats, single oral dose Ibb 19 mg/kg (IVb molar equiv. 15 mg/kg)", "value": "<LLQ"}, {"measurement": "C24 h", "setting": "[1]; male rats, single oral dose Ibb 64 mg/kg (IVb molar equiv. 51 mg/kg)", "value": "<LLQ"}, {"measurement": "C24 h", "setting": "[1]; male rats, single oral dose Ibb 236 mg/kg (IVb molar equiv. 190 mg/kg)", "value": "<LLQ"}, {"measurement": "Cmax", "setting": "[1]; male, Sprague Dawley, po, 19 mg/kg", "value": 0.027, "unit": "µM"}, {"measurement": "AUC", "setting": "[1]; male, Sprague Dawley, po, 19 mg/kg, read-out: AUC from zero to last time point", "value": 30, "unit": "nM·h"}, {"measurement": "half-life", "setting": "[1]; male, Sprague Dawley, po, 19 mg/kg, read-out: T1/2 (converted)", "value": 78, "unit": "min"}, {"measurement": "Cmax", "setting": "[1]; male, Sprague Dawley, po, 64 mg/kg", "value": 0.14, "unit": "µM"}, {"measurement": "AUC", "setting": "[1]; male, Sprague Dawley, po, 64 mg/kg, read-out: AUC from zero to last time point", "value": 180, "unit": "nM·h"}, {"measurement": "half-life", "setting": "[1]; male, Sprague Dawley, po, 64 mg/kg, read-out: T1/2 (converted)", "value": 276, "unit": "min"}, {"measurement": "Cmax", "setting": "[1]; male, Sprague Dawley, po, 236 mg/kg", "value": 0.25, "unit": "µM"}, {"measurement": "AUC", "setting": "[1]; male, Sprague Dawley, po, 236 mg/kg, read-out: AUC from zero to last time point", "value": 490, "unit": "nM·h"}, {"measurement": "half-life", "setting": "[1]; male, Sprague Dawley, po, 236 mg/kg, read-out: T1/2 (converted)", "value": 216, "unit": "min"}, {"measurement": "clinical signs, body weight and food consumption", "setting": "[2]; dogs", "value": "Other than emesis, there were no clinical signs observed, and there were no effects on body weight and food consumption"}, {"measurement": "emesis", "setting": "[2]; dogs", "value": "emesis (white, streaked with red that contained capsule remnants) was observed at about 0.5-1.25 hours after dosing in all dogs given ≧92 mg/kg QD; also recorded: emesis (white or brown) was observed within 2 hours after dosing in all dogs given ≧46 mg/kg BID"}, {"measurement": "half-life", "setting": "[3]; [4]", "value": 0.1, "unit": "h"}, {"measurement": "clearance", "setting": "[3]; [5]", "value": 28, "unit": "mL/min/kg"}, {"measurement": "Vd", "setting": "[3]; [5]", "value": 0.15, "unit": "L/kg"}, {"measurement": "prodrug detected in plasma after oral administration", "setting": "[3]; LLQ = 5 nM", "value": "not detected"}]}
{"smiles": "COc1cnc(OC)c2c1c(C(=O)C(=O)N1CCN(C(=O)c3ccccc3)CC1)cn2COP(=O)(O)O", "note": "[Iab, {3-[(4-benzoylpiperazin-1-yl)(oxo)acetyl]-4,7-dimethoxy-1H-pyrrolo[2,3-c]pyridin-1-yl}methyl dihydrogen phosphate, L-lysine salt (1:1)]", "values": [{"measurement": "half-life", "setting": "[1]; CD, male rats, Iab 16 mg/kg PO, analyte = label, read-out: T½ (converted)", "value": 38.4, "unit": "min"}, {"measurement": "half-life", "setting": "[1]; CD, male rats, Iab 72 mg/kg PO, analyte = label, read-out: T½ (converted)", "value": 22.2, "unit": "min"}, {"measurement": "AUC", "setting": "[1]; CD, male rats, Iab 267 mg/kg PO, AUC from zero to time of last quantifiable sample, read-out: AUC", "value": 57, "unit": "nM·h"}, {"measurement": "half-life", "setting": "[1]; CD, male rats, Iab 267 mg/kg PO, analyte = label, read-out: T½ (converted)", "value": 2.7, "unit": "min"}, {"measurement": "Cmax", "setting": "[1]; CD, male rats, single oral dose Iab 16 mg/kg (13 mg/kg IVa molar equiv.), water, analyte = label", "value": 0.068, "unit": "µM"}, {"measurement": "Cmax", "setting": "[1]; CD, male rats, single oral dose Iab 72 mg/kg (57 IVa equiv.), analyte = label", "value": 0.095, "unit": "µM"}, {"measurement": "Cmax", "setting": "[1]; CD, male rats, single oral dose Iab 267 mg/kg (211 IVa equiv.), analyte = label", "value": 0.11, "unit": "µM"}, {"measurement": "C24 h (μM)", "setting": "[1]; male rats, Iab 16 mg/kg PO, analyte = label", "value": "<LLQ^1"}, {"measurement": "C24 h (μM)", "setting": "[1]; male rats, Iab 72 mg/kg PO, analyte = label", "value": "<LLQ"}, {"measurement": "C24 h (μM)", "setting": "[1]; male rats, Iab 267 mg/kg PO, analyte = label", "value": "<LLQ"}, {"measurement": "AUC", "setting": "[1]; male, CD, po, 16 mg/kg, read-out: AUC", "value": 20, "unit": "nM·h"}, {"measurement": "AUC", "setting": "[1]; male, CD, po, 72 mg/kg, read-out: AUC", "value": 49, "unit": "nM·h"}, {"measurement": "plasma AUC of the prodrug relative to that of the parent", "setting": "[1]; rats, single oral dose of Iab", "value": "≤ 0.03", "unit": "%"}, {"measurement": "percentage of estimated total dose lost in vomit", "setting": "[2]; Dog #1201 (90 mg/kg Iab)", "value": "< 1", "unit": "%"}, {"measurement": "percentage of estimated total dose lost in vomit", "setting": "[2]; Dog #2201 (240 mg/kg Iab)", "value": "≈ 90%"}, {"measurement": "percentage of estimated total dose lost in vomit", "setting": "[2]; Dog #2202 (240 mg/kg Iab)", "value": "≈ 9%"}, {"measurement": "clinical signs, body weight and food consumption", "setting": "[2]; dogs", "value": "Other than emesis, there were no clinical signs observed, and there no effects on body weight and food consumption"}, {"measurement": "emesis", "setting": "[2]; dogs", "value": "Emesis was observed at about 30 minutes after dosing in both dogs given 90 mg/kg; also recorded: Emesis was observed in Dogs #1201, #2201, and #2202 about 1 hour after dosing"}, {"measurement": "concentration at 1 h", "setting": "[2]; female, dog, plasma, oral, dogs, 1 hour post dose, Iab 90-240 mg/kg phase, read-out: prodrug detected in plasma", "value": "0.005 to 0.049", "unit": "µM"}, {"measurement": "concentration at 2 h", "setting": "[2]; female, dog, plasma, oral, dogs, 2 hours post dose, Iab 90-240 mg/kg phase, read-out: prodrug detected in plasma", "value": "0.005 to 0.006", "unit": "µM"}, {"measurement": "prodrug in the plasma samples", "setting": "[2]; initial phase, Iab 24 or 90 mg/kg", "value": "not detected"}, {"measurement": "concentration at 15 min", "setting": "[3]; male, cynomolgus monkey, plasma, po, LLQ = 5 nM, read-out: prodrug detected in plasma after oral administration", "value": 0.018, "unit": "µM"}, {"measurement": "AUC", "setting": "[3]; male, cynomolgus monkey, plasma, after IV prodrug (~1.1 mg/kg parent equivalent), analyte = label, read-out: AUCtot (μM · hr), IV", "value": "9500 ± 380", "unit": "nM·h"}, {"measurement": "half-life", "setting": "[3]; [4]", "value": 1, "unit": "h"}, {"measurement": "clearance", "setting": "[3]; [5]", "value": 4.4, "unit": "mL/min/kg"}, {"measurement": "Vd", "setting": "[3]; [5]", "value": 0.048, "unit": "L/kg"}]}
